{
  "source": "patent US20170305984A1",
  "about": "“STATHERIN PEPTIDES” (THE UNIVERSITY OF WESTERN ONTARIO, priority 2014, published 2017)",
  "key": {"[1]": {"assay": "Enamel demineralization with chitosan nanoparticle coatings: calcium and phosphate released from enamel (Table 3)", "design": "species or system human", "details": "for demineralization / acid protection (in words): coated enamel vs not coated control, pH 4.5, 12 days", "method": "Demineralization studies are conducted using thin sections of human enamel. Enamel minerals were analyzed using microradiography. To determine the influence of selected chitosan encapsulated salivary proteins on enamel demineralization, resin-coated enamel sections were first exposed to solutions containing chitosan encapsulated salivary proteins at a concentration of 1.0 mg/ml for 2 h at 37° C. To mimic the acidic environment of dental caries, chitosan encapsulated salivary proteins and control sections were placed into individual tubes with 3 ml of a demineralization solution containing 2.2 mM CaCl2, 2.2 mM NaH2PO4, 5 mM acetic acid, a pH 4.5. The sample was incubated at 37° C. with gentle agitation for a period of 12 days. All solutions contained 3 mM sodium azide as a bacteriostatic agent. Immediately after the demineralization period, the specimens were extensively washed with distilled water and dried with filter paper. Mineral loss was evaluated by comparing the microradiography taken before and after exposure to the acidic conditions. Enamel pieces were prepared as described and coated with chitosan nanoparticles, DR-9 encapsulated in chitosan nanoparticles, DR-9, and 0.05% NaF (gold standard group). In some groups, parotid saliva was allowed to adsorb first on enamel species to mimic the AEP (Table 3). Adsorption was allowed to proceed for a period of 2 hours at 37° C. with gentle agitation. Enamel specimens were then washed with distilled water and immersed in a demineralization solution, pH 4.5 for 12 days. This solution was used to measure the amount of calcium and phosphate released from enamel."}, "[2]": {"assay": "Chitosan encapsulation rate, ELISA of remaining unencapsulated protein or peptide", "assay_type": "physicochemical", "details": "encapsulation in chitosan nanoparticles", "from_the_text": "Based on the optimized parameters for construction of chitosan micro- and nanoparticles, AEP was mixed directly with the chitosan solution. Chitosan micro- and nanoparticles were constructed, as described above, and the particles were characterized through Zeta sizing and SEM. Reverse Phase-High Performance Liquid Chromatography (RP-HPLC) and/or enzyme-linked immunosorbent assay (ELISA) was used to determine the degree of encapsulation by measuring the amount of free peptides, before and after the encapsulation procedure. Chitosan encapsulation of histatin 5, DR-9, RR-14 and bovine serum albumin was carried out to determine the chitosan encapsulation rate. ELISA assay assessed the remaining unencapsulated protein or peptide."}, "[3]": {"assay": "Inhibition of spontaneous precipitation of supersaturated calcium phosphate solutions (Alizarin Red S, 570 nm)", "details": "all test concentrations, compared to a group without any inhibitor; FIG. 4", "method": "To investigate the ability of the chitosan encapsulated AEP proteins/peptides to prevent crystal growth, microtiter plates were coated with proteins/peptides in a HEPES buffer at RT for 1 h. The wells were washed followed by the addition of a solution containing phosphate (15 mM; pH 7.4), NaCl (150 mM) and CaCl2 (50 mM). The solutions were incubated for 4 h at room temperature, allowing the formation of hydroxyapatite crystals. After this period, the solution was removed, 5% Alizarin Red S (pH 4.2), was added, followed by cerylpyridinium chloride. Crystal production was analyzed spectrophotometrically at 570 nm."}, "[4]": {"details": "all studied concentrations, compared to other native statherin peptides; p<0.05; cited from earlier work"}, "[5]": {"assay": "Enamel demineralization protection by constructed peptides: calcium and phosphate released from enamel (Example 1)", "design": "species or system human", "details": "for Mean Ca Conc. (calcium released from human enamel) / Mean PO4 Conc. (phosphate released from human enamel): 1 mg/mL peptide 2 hours 37° C., then demineralization solution pH 4.5, 37° C., 12 days, mean ± SD; for Enamel demineralization protection / mineral loss (in words): versus distilled water control and other groups, ANOVA, Tukey", "from_the_text": "Enamel sample preparation was done as previously described (Siqueira et. al. 2010, J Dent Res. 2010; 89: 626-630, the relevant contents of which are incorporated herein by reference). Briefly, human permanent first molars without defects were cleaned, rinsed, and sectioned. After having the roots removed, the crowns were sliced sagittally into 4 sections (each with a 300 μm thickness) using a diamond saw, followed by grinding to a thickness of 150 μm using sandpaper. Each specimen was coated with a layer of light-cured dental adhesive (3M ESPE Scotchbond™ Universal) and nail varnish, excluding an untouched 2 mm window on the natural surface enamel. Each specimen was submerged in 1 mg/mL construct peptide solution or distilled water (control group) and incubated for 2 hours at 37° C. After this period, the samples were then submerged in 1 mL of demineralization solution (0.05M acetic acid; 2.2 mM CaCl2; 2.2 mM NaH2PO4; pH 4.5) at 37° C. for 12 days. Afterward, they were rinsed thoroughly with distilled water and dried with filter paper to remove any remaining acid residue. The remaining 1 mL of acidic solution was used to assess the calcium and phosphate concentration released from enamel during the demineralization process. The calcium concentration of the solution was assessed using a quantitative colorimetric calcium determination assay (QuantiChrom™ Calcium Assay Kit, Bioassay Systems, Hayward, Calif., USA) with a UV-visible spectrophotometer to determine the optical density at a wavelength of 612 nm. The phosphate concentration was assessed using a colorimetric assay (PiColorLock™ Gold Detection System, Innova Biosciences, Cambridge, U.K.) and UV-visible spectrophotometer, to determine the optical density at a wavelength of 635 nm. All samples were analyzed in duplicate. Statistical analysis was performed with ANOVA and the Tukey Range Test."}, "[6]": {"details": "adsorbed for 2 hrs at 37° C., demineralization solution pH 4.5 for 12 days, n = 10"}},
  "note": "Entries after “also recorded” stand apart in the source; their conditions may differ. Marks after values point to notes of the source that are not given here. Square brackets hold non-standard residues; d marks the D form. Ends that are not written are not given here. pS = N[C@@H](COP(=O)(O)O)C(=O)O",
  "data": [
    {"compound": "[F-].[Na+]", "note": "[NaF]", "values": [
      {"measurement": "Calcium released from enamel", "setting": "[1]; [6]", "value": "0.30 ± 0.13 ^b mM"},
      {"measurement": "Phosphate released from enamel", "setting": "[1]; [6]", "value": "0.17 ± 0.06 ^b mM"},
      {"measurement": "demineralization / acid protection (in words)", "setting": "[1]", "value": "better acid protection"}
    ]},
    {"compound": "Bovine Serum Albumin: model protein for chitosan encapsulation", "values": [
      {"measurement": "Encapsulation Efficiency", "setting": "[2]", "value": 88.3, "unit": "%"}
    ]},
    {"compound": "DSpSpEEKFLR (D[pS][pS]EEKFLR) [DR9]", "values": [
      {"measurement": "inhibition of calcium phosphate crystal growth", "setting": "[3]", "value": "statistically significant inhibition of calcium phosphate crystal growth"},
      {"measurement": "demineralization / acid protection (in words)", "setting": "[1]", "value": "intermediary level of demineralization protection"},
      {"measurement": "hydroxyapatite growth inhibition", "setting": "[4]", "value": "significant effect"},
      {"measurement": "Encapsulation Efficiency", "setting": "[2]", "value": 75.5, "unit": "%"},
      {"measurement": "Mean Ca Conc. (calcium released from human enamel)", "setting": "[5]", "value": "1.455 ± 2.13^B, C mM"},
      {"measurement": "Mean PO4 Conc. (phosphate released from human enamel)", "setting": "[5]", "value": "0.849 ± 1.80^B, C mM"}
    ]},
    {"compound": "DSpSpEEKFLRDSpSpEEKFLR (D[pS][pS]EEKFLRD[pS][pS]EEKFLR) [DR9-DR9]", "values": [
      {"measurement": "Mean Ca Conc. (calcium released from human enamel)", "setting": "[5]", "value": "0.581 ± 0.16^C mM"},
      {"measurement": "Mean PO4 Conc. (phosphate released from human enamel)", "setting": "[5]", "value": "0.514 ± 0.18^C mM"},
      {"measurement": "Enamel demineralization protection / mineral loss (in words)", "setting": "[5]", "value": "lowest mineral loss; also recorded: amplified by DR9-DR9 when compared to single DR9 or statherin"}
    ]},
    {"compound": "DSpSpEEKFLRRIGRFGYGYGPYQPVPEQPLYPQPYQPQYQQYTF (D[pS][pS]EEKFLRRIGRFGYGYGPYQPVPEQPLYPQPYQPQYQQYTF) [Statherin]", "values": [
      {"measurement": "Mean Ca Conc. (calcium released from human enamel)", "setting": "[5]", "value": "1.117 ± 1.29^B, C mM"},
      {"measurement": "Mean PO4 Conc. (phosphate released from human enamel)", "setting": "[5]", "value": "0.681 ± 1.11^B, C mM"}
    ]},
    {"compound": "DSpSpEEKFLRRKFHEKHHSHRGYR (D[pS][pS]EEKFLRRKFHEKHHSHRGYR) [DR9-RR14]", "values": [
      {"measurement": "Mean Ca Conc. (calcium released from human enamel)", "setting": "[5]", "value": "3.132 ± 2.46^B mM"},
      {"measurement": "Mean PO4 Conc. (phosphate released from human enamel)", "setting": "[5]", "value": "2.282 ± 2.01^B mM"},
      {"measurement": "Enamel demineralization protection / mineral loss (in words)", "setting": "[5]", "value": "intermediate value among the groups; also recorded: able to maintain the biological function of one of the precursor proteins, statherin"}
    ]},
    {"compound": "DSpSpEEKFLRVPAGLRKFHEKHHSHRGYR (D[pS][pS]EEKFLRVPAGLRKFHEKHHSHRGYR) [DR9-VPAGL-RR14]", "values": [
      {"measurement": "Mean Ca Conc. (calcium released from human enamel)", "setting": "[5]", "value": "4.755 ± 1.35^A mM"},
      {"measurement": "Mean PO4 Conc. (phosphate released from human enamel)", "setting": "[5]", "value": "3.917 ± 0.82^A mM"},
      {"measurement": "Enamel demineralization protection / mineral loss (in words)", "setting": "[5]", "value": "did not provide any increased demineralization protection over the control"}
    ]},
    {"compound": "DSpSpEEKFLRVPLSLRKFHEKHHSHRGYR (D[pS][pS]EEKFLRVPLSLRKFHEKHHSHRGYR) [DR9-VPLSL-RR14]", "values": [
      {"measurement": "Mean Ca Conc. (calcium released from human enamel)", "setting": "[5]", "value": "4.106 ± 2.13^A mM"},
      {"measurement": "Mean PO4 Conc. (phosphate released from human enamel)", "setting": "[5]", "value": "3.159 ± 1.85^A mM"},
      {"measurement": "Enamel demineralization protection / mineral loss (in words)", "setting": "[5]", "value": "did not provide any increased demineralization protection over the control"}
    ]},
    {"compound": "Histatin 5", "values": [
      {"measurement": "Encapsulation Efficiency", "setting": "[2]", "value": 82.9, "unit": "%"}
    ]},
    {"compound": "RKFHEKHHSHRGYR [RR-14]", "values": [
      {"measurement": "Encapsulation Efficiency", "setting": "[2]", "value": 93.1, "unit": "%"}
    ]}
  ]
}
